Data from patent US20220211694A1, “QUINOLINE DERIVATIVES FOR TREATMENT OF HEAD AND NECK CANCER” (CHIA TAI TIANQING PHARMACEUTICAL GROUP CO., LTD., priority 2019, published 2022).
Structures can show the parent of a compound that is named as a salt.

Assays:
head and neck cancer = assay: Clinical study of anlotinib with intensity modulated radiotherapy in previously untreated head and neck cancer; assay type: in vivo, human; conditions: patients with head and neck cancer; anlotinib 10 mg/day combined with radiotherapy
Procedure: Previously untreated patients with pathologically confirmed head and neck cancer, specifically including ones with nasopharyngeal carcinoma, tonsil cancer, floor of mouth cancer, oral cancer, laryngeal cancer and hypopharyngeal cancer, were all received intensity modulated radiotherapy after administration of anlotinib. The administration regimens are detailed below. Anlotinib: administered about one week before radiotherapy, 10 mg/day for a three-cycle treatment, consecutively two-week treatment and then one-week interruption, and whether the medicine was administered continuously was determined according to the change in tumors after radiotherapy. The efficacy evaluation observation indexes include 3-year overall survival (OS), […] (DFS), 3-year distant metastasis rate and local control rate. Patient, pathologically diagnosed with tonsil cancer, starting taking anlotinib hydrochloride capsules on Oct. 10, 2018 once daily, orally before breakfast at a dose of 10 mg each time, with consecutively two-week treatment and then one-week interruption; starting receiving radiation therapy on Oct. 15, 2018. Patient, pathologically diagnosed with nasopharyngeal carcinoma, starting taking anlotinib hydrochloride capsules on Nov. […]

[1] = test system: head and neck adenocarcinoma; assay: Clinical study of anlotinib hydrochloride capsules in recurrent/metastatic head and neck adenocarcinomas; assay type: in vivo, human; conditions: patients with head and neck adenocarcinoma; 12 mg once daily orally, d1-14 of each 21-day cycle
[2] = test system: human oral squamous cell carcinoma HSC-4 cell line; assay: MTT cell growth inhibition, HSC-4 cell line; assay type: cell-based; conditions: MTT method, in vitro
Procedure: (§1) The test drugs were dissolved in dimethyl sulfoxide to prepare a 100 mmol/L stock solution, which was stored at −20° C. for later use. When in use, the stock solution was diluted with a DMEM serum culture medium to a desired concentration.
(§2) The human oral squamous cell carcinoma scc4 cell line, the human oral squamous cell carcinoma CAL-27 cell line and the human oral squamous cell carcinoma HSC-4 cell line were separately cultured in a DMEM complete culture medium containing 10% fetal bovine serum and 0.1 g/L streptomycin and penicillin (the final concentration is 100 U·mL^−1), and the mixtures were incubated in an incubator at 37° C./5% CO2. When the cell confluence reached about 85%, the cells were mixed and digested using 0.02% EDTA and 0.25% trypsin, and then the cells were collected, centrifuged at 1000 r/min, and subcultured.
(§3) The IC50 value can be measured by a conventional method in the art (e.g., conventional MTT method), or can be measured by the following method (MTT method). […]
(§4) Half maximal inhibitory concentration IC50 was calculated according to inhibition rates at all concentrations using GraphPad Prism 5 software.

[3] = test system: human laryngeal carcinoma TU212 cell line; assay: MTT cell growth inhibition, TU212 cell line; assay type: cell-based; conditions: MTT method, in vitro
Procedure: as §1
(§5) The human laryngeal squamous cell carcinoma Hep-2 cell line and the human laryngeal carcinoma TU212 cell line were separately cultured in a DMEM complete culture medium containing 10% fetal bovine serum and 0.1 g/L streptomycin and penicillin (the final concentration is 100 U·mL^−1), and the mixtures were incubated in an incubator at 37° C./5% CO2. When the cell fusion reached about 85%, the cells were mixed and digested using 0.02% EDTA and 0.25% trypsin, and then the cells were collected, centrifuged at 1000 r/min, and subcultured.
as §3, §4

[4] = test system: human oral squamous cell carcinoma scc4 cell line; assay: MTT cell growth inhibition, scc4 cell line; assay type: cell-based; conditions: MTT method, in vitro
Procedure: as §1, §2, §3, §4

[5] = test system: human laryngeal squamous cell carcinoma Hep-2 cell line; assay: MTT cell growth inhibition, Hep-2 cell line; assay type: cell-based; conditions: MTT method, in vitro
Procedure: as §1, §5, §3, §4

[6] = test system: human oral squamous cell carcinoma CAL-27 cell line; assay: MTT cell growth inhibition, CAL-27 cell line; assay type: cell-based; conditions: MTT method, in vitro
Procedure: as §1, §2, §3, §4

SMILES | clinical benefits (head and neck cancer) | clinical benefits [1] | effect on the proliferation of the human oral squamous cell carcinoma cells [2] | effect on the proliferation of the human laryngeal carcinoma cells [3] | effect on the proliferation of the human oral squamous cell carcinoma cells [4] | effect on the proliferation of the human laryngeal squamous cell carcinoma cells [5] | effect on the proliferation of the human oral squamous cell carcinoma cells [6]
COc1cc2c(Oc3ccc4[nH]c(C)cc4c3F)ccnc2cc1OCC1(N)CC1 [anlotinib, 1-[[[4-(4-fluoro-2-methyl-1H-indol-5-yl)oxy-6-methoxyquinolin-7-yl]oxy]methyl]cyclopropylamine] | had clinical benefits | had clinical benefits |  |  |  |  | 
COc1cc2c(Oc3ccc4[nH]c(C)cc4c3F)ccnc2cc1OCC1(N)CC1 [dihydrochloride of the compound I] |  |  | clear inhibitory effect | clear inhibitory effect | clear inhibitory effect | clear inhibitory effect | clear inhibitory effect
